Measured values as given in patent US10118954B2, “Apelin analogues” (University of Ulster, priority 2014, dated 2018).
Each block holds one molecule with its values, some of them ahead of it.

Key:
[1] = Degradation of apelin peptides by plasma from fasted normal NIH Swiss mice (rp-HPLC, MALDI-TOF MS); type: in vitro ADME
Procedure: Degradation of Apelin Peptides by Plasma from Fasted Normal NIH Swiss Mice […] The enzymatic reaction was stopped by adding 50 μl of 10% TFA (0.1% v/v; Sigma-Aldrich Ltd, (Poole, Dorset, UK) and frozen at -20° C. until separation. The terminated reaction products were then applied to an analytical Vydac C-8 column (4.6×150 mm; Phenomenex, Macclesfield, Cheshire, UK) for rp-HPLC analysis. The absorbance was monitored at 214 nm using a […] UV 2000 detector (Thermoquest Limited, Manchester, UK) and the traces were recorded by Thermo Electron ChromQuest data collection software (version 4). HPLC peak fractions were collected manually and subjected to MALDI-TOF mass spectrometry for peptide identification. Degradation profile of various apelin-13 related analogues: plasma incubations (4 h) were separated on a Vydac C-8 analytical HPLC column and all peaks were collected prior to analysis by MALDI-TOF mass spectrometry. Degradation fragments, actual molecular weights (Mr) and retention times (RT) are shown. Theoretical molecular weights of each fragment are shown in brackets. […] Degradation fragments, theoretical molecular weights (Mr) and retention times (RT) are shown. Theoretical molecular weights of each fragment are shown in brackets.

[2] = test system: high fat fed NIH Swiss mice; test: 28 day long-term study of fatty acid apelin analogues, once daily i.p. administration; type: in vivo
From the text: NIH Swiss mice (Harlan UK Ltd., Blackthorne, UK) were derived from a nucleus colony obtained from the National Institute of Health, Bethesda, Md., USA. One group of mice were maintained on a standard rodent diet (10% fat, 30% protein, 60% carbohydrate; percent of total energy 12.99 kJ/g, Trouw Nutrition, Cheshire, UK) and used as a model of normal glycaemia. Other NIH Swiss mice were maintained on a high fat diet (45% fat, 20% protein, 35% carbohydrate; percent of total energy 26.15 kJ/g; Dietex, Essex, UK) from 8 weeks of age for 150 days to produce a model of diet induced obesity-diabetes. […] All mice were housed in an air-conditioned room maintained at 22±2° C. with a 12 h light: 12 h dark cycle (08:00-20:00 h), were singly caged, and selected for experimental groups according to body weight and non-fasted blood glucose. Drinking water and diet were freely available. All animal studies were performed in accordance with the UK Animals (Scientific Procedures) Act 1986.
For another 28 day long-term study of selected fatty acid apelin analogues administered once daily, normal control NIH Swiss (n=8) and high-fat fed NIH Swiss (n=8) were grouped and received once daily i.p. injections of saline vehicle (0.9% NaCl (w/v)) at 17:00 h over a 4 day run-in period. Following the run-in period, normal control (n=8) and high-fat fed mice (n=8) received once daily (17:00 h) i.p. administration of saline vehicle (0.9% NaCl (w/v)) for 28 days. Additional groups of high-fat fed mice (n=8) received once daily i.p. injections of (Lys^8gluPal)apelin-13-amide, pGlu(Lys^8gluPal)apelin-13-amide or liraglutide (each at 25 nmol/kg bw) over a 28 day treatment period.
Food intake, body weight, blood glucose and plasma insulin were monitored at intervals of 2-3 days throughout the run-in and 28 day treatment period. Blood samples for glucose and plasma insulin measurement were collected at intervals throughout the study from the cut tail vein of conscious mice. Following the 28 day treatment period, oral, i.p. and meal test glucose tolerance ([…].), and insulin sensitivity (25 U/kg bw) tests were performed. Glucose was measured using an Ascensia Contour meter and blood was collected and processed for plasma insulin analysis by radioimmunoassay. Body weight and fat mass was also assessed using the PIXImus DEXA scanner whilst energy expenditure, intake, food intake and feeding bouts were assessed using the CLAMS metabolic chamber. HbA1c was analysed post 28 days using Bayer A1C Now^+ Multi Test meter. Lipid profile test was obtained by using the iLab analyser. Cholesterol, triglyceride and HDL-cholesterol levels were measured, in plasma (3 μl), using the iLab analyser. LDL-cholesterol levels were obtained using the Friedewald equation=total cholesterol−HDL−(triglycerides/3).

[3] = test system: NIH Swiss mice fed a high-fat diet for 150 days; test: Acute and delayed i.p. glucose tolerance test, blood glucose and plasma insulin; type: in vivo
Procedure: Plasma glucose and plasma insulin concentrations were measured prior to and after i.p. administration of glucose alone (18 mmol/kg body weight), or in combination with apelin analogues (25 nmol/kg body weight) in 18 h fasted mice fed a high-fat diet for 150 days. Values represent mean±SEM for eight mice (n=8). *P<0.05, **P<0.01 and ***P<0.001 compared to glucose alone. FIG. 6 illustrates effect of i.p. administration of glucose alone (18 mmol/kg body weight), ([…])apelin-13 and ([…])apelin-13 alone or in combination (each 25 nmol/kg body weight) on (A) blood glucose and (B) plasma insulin in 18 h fasted mice fed a high-fat diet for 150 days. Values represent mean±SEM for eight mice (n=8). *p<0.05 and **p<0.01 compared to glucose alone, ^+P<0.05 compared to ([…])apelin-13, ^∇P<0.05 and ^∇∇P<0.01 compared to ([…])apelin-13. FIG. 10 illustrates tests conducted 2 h after administration of apelin related analogues (25 nmol/kg body wt) in 18 h fasted mice fed a high-fat diet for 150 days. (A) Blood glucose and (B) plasma insulin was measured before and after i.p. administration of glucose (18 mmol/kg body wt) alone or in combination with apelin analogues. Values represent mean±SEM for eight mice (n=8). *P<0.05 and **P<0.01 compared to glucose alone. FIG. 11 illustrates tests conducted 8 h after administration of apelin related analogues (25 nmol/kg body wt) in 18 h fasted mice fed a high-fat diet for 150 days. (A) Blood glucose and (B) plasma insulin was measured before and after i.p. administration of glucose (18 mmol/kg body wt) alone or in combination with apelin analogues. Values represent mean±SEM for eight mice (n=8). *P<0.05 and **P<0.01 compared to glucose alone. FIG. 12 illustrates acute effects of fatty acid modified apelin analogues on glucose-lowering and insulin release in high fat fed Swiss NIH mice with dietary-induced diabetes. (A) Blood glucose and (B) plasma insulin concentrations were measured prior to and after i.p. administration of glucose alone (18 mmol/kg body weight), or in combination with apelin analogues (25 nmol/kg body weight) in 18 h fasted mice fed a high-fat diet for 150 days. Values represent mean±SEM for eight mice (n=8). *P<0.05, compared to glucose alone. FIG. 13 illustrates tests conducted 16 h after administration of fatty acid apelin analogues (25 nmol/kg body wt) in mice fed a high-fat diet for 150 days. (A) Blood glucose and (B) plasma insulin was measured before and after i.p. administration of glucose (18 mmol/kg body wt) alone or in combination with apelin analogues. Values represent mean±SEM for eight mice (n=8). *P<0.05, **P<0.01 and ***P<0.001 compared to glucose alone. NIH Swiss mice (Harlan UK Ltd., Blackthorne, UK) were derived from a nucleus colony obtained from the National Institute of Health, Bethesda, Md., USA. One group of mice were maintained on a standard rodent diet (10% fat, 30% protein, 60% carbohydrate; percent of total energy 12.99 kJ/g, Trouw Nutrition, Cheshire, UK) and used as a model of normal glycaemia. Other NIH Swiss mice were maintained on a high fat diet (45% fat, 20% protein, 35% carbohydrate; percent of total energy 26.15 […], UK) from 8 weeks of age for 150 days to produce a model of diet induced obesity-diabetes. […] All mice were housed in an air-conditioned room maintained at 22±2° C. with a 12 h light: 12 h dark cycle (08:00-20:00 h), were singly caged, and selected for experimental groups according to body weight and non-fasted blood glucose. Drinking water and diet were freely available. All animal studies were performed in accordance with the UK Animals (Scientific Procedures) Act 1986. For acute in vivo studies, blood samples were collected from the cut tip of the tail vain of fasted, conscious mice into fluoride/heparin coated glucose microcentrifuge tubes (Sarstedt, Germany) immediately prior to (t=0) and at 15, 30, 60 and 105 min following i.p. injection of glucose ([…]).

[4] = NIH Swiss, mouse, plasma, pH 7.4
[5] = once daily 25 nmol/kg bw, 28 days
[6] = fatty acid derived agonists, 16 h delayed i.p. glucose tolerance test, 25 nmol/kg
[7] = fatty acid derived agonists, acute i.p. glucose tolerance test, 25 nmol/kg
[8] = acute, peptide 25 nmol/kg i.p. with glucose 18 mmol/kg, Table 4
[9] = following a 2 h delay, 25 nmol/kg
[10] = following a 8 h delay, 25 nmol/kg

Rank order of stability [1]: =1
Half-life (t1/2) ([1]; NIH Swiss, mouse, plasma, 263 µg/mL, pH 7.4): >24 h
half-life at 263 µg/mL [1, 4]: > 24 h
remaining at 4 h, 263 µg/mL [1, 4]: 100%
SMILES: CCCCCCCCCCCCCCCC(=O)N[C@@H](CCC(=O)NCCCC[C@H](NC(=O)[C@H](Cc1c[nH]cn1)NC(=O)[C@H](CO)NC(=O)[C@H](CC(C)C)NC(=O)[C@H](CCCNC(=N)N)NC(=O)[C@@H]1CCCN1C(=O)[C@H](CCCNC(=N)N)NC(=O)[C@@H](N)CCC(N)=O)C(=O)NCC(=O)N1CCC[C@H]1C(=O)N[C@@H](CCSC)C(=O)N1CCC[C@H]1C(=O)N[C@@H](Cc1ccccc1)C(N)=O)C(=O)O [(Lys^8GluPAL)apelin-13-amide]
Percentage fat mass ([2]; after 28 days, DEXA analysis): 30.8%
Insulin sensitivity ([2]; after 28 days, insulin 25 U/kg bw): significantly improved
Glucose tolerance and plasma insulin excursion in response to an i.p and oral glucose challenge ([2]; after the 28 day treatment period): significantly improved
HDL-cholesterol levels compared to the lean control and high fat fed mice ([2]; once daily): significantly increased
Bodyweight reduction [2, 5]: approximately 4%
Day of study at which bodyweight was significantly decreased [2, 5]: 21 days
Day of study at which circulating blood glucose began to be significantly reduced and plasma insulin increased [2, 5]: 10 days
Day of study at which food intake was significantly reduced [2, 5]: 8 days
LDL-cholesterol levels compared to the high fat fed controls ([2]; once daily, Friedewald equation): significantly lowered
Plasma triglyceride levels ([2]; once daily, high-fat fed mice): significantly lower
Rank order on basis of anti-hyperglycaemic efficacy ([3]; fatty acid derived agonists, 16 h delay): 2
Blood glucose as percent of glucose-alone control (lower = stronger glucose lowering) [3, 6]: 61% (**)
Insulin secretion, where glucose alone = 100% [3, 6]: 156% (***)
Rank order on basis of anti-hyperglycaemic efficacy ([3]; fatty acid derived agonists, acute): 2
Glucose lowering, where glucose alone = 100% [3, 7]: 85%
Insulin secretion, where glucose alone = 100% [3, 7]: 110%

Degradation fragment, Peak 1 [1]: (1-5)
Degradation fragment, Peak 2 [1]: (1-6)
Degradation fragment, Peak 3 [1]: (1-12)
Rank order of stability [1]: 4
half-life at 263 µg/mL [1, 4]: 12.2 h
remaining at 4 h, 263 µg/mL [1, 4]: 79 ± 0.6%
SMILES: CSCC[C@H](NC(=O)[C@@H]1CCCN1C(=O)CNC(=O)[C@H](CCCCN)NC(=O)[C@H](Cc1c[nH]cn1)NC(=O)[C@H](CO)NC(=O)[C@H](CC(C)C)NC(=O)[C@H](CCCNC(=N)N)NC(=O)[C@@H]1CCCN1C(=O)[C@H](CCCNC(=N)N)NC(=O)[C@@H]1CCC(=O)N1)C(=O)N1CCC[C@H]1C(=O)N[C@@H](Cc1ccc(O)cc1)C(=O)O [pGlu(Tyr^13)apelin-13, pGlu (Tyr^13)apelin-13]
Rank order on basis of anti-hyperglycaemic efficacy ([3]; acute, Table 4): 3
Blood glucose as percent of glucose-alone control (lower = stronger glucose lowering) [3, 8]: 71% (*)
Insulin secretion, where glucose alone = 100% [3, 8]: 138% (**)
Rank order on basis of anti-hyperglycaemic efficacy ([3]; following a 2 h delay): 3
Blood glucose as percent of glucose-alone control (lower = stronger glucose lowering) [3, 9]: 78% (**)
Insulin secretion, where glucose alone = 100% [3, 9]: 142% (**)
Rank order on basis of anti-hyperglycaemic efficacy ([3]; following a 8 h delay): 2
Blood glucose as percent of glucose-alone control (lower = stronger glucose lowering) [3, 10]: 86% (*)
Insulin secretion, where glucose alone = 100% [3, 10]: 112%

Degradation fragment, Peak 1 [1]: (1-6)
Degradation fragment, Peak 2 [1]: (1-12)
Rank order of stability [1]: 9
half-life at 263 µg/mL [1, 4]: 9.8 h
remaining at 4 h, 263 µg/mL [1, 4]: 76.2 ± 1.9%
SMILES: CSCC[C@H](NC(=O)[C@@H]1CCCN1C(=O)CNC(=O)[C@H](CCCCN)NC(=O)[C@H](Cc1c[nH]cn1)NC(=O)[C@H](CO)NC(=O)[C@H](CC(C)C)NC(=O)[C@H](CCCNC(=N)N)NC(=O)[C@@H]1CCCN1C(=O)[C@H](CCCNC(=N)N)NC(=O)[C@@H]1CCC(=O)N1)C(=O)N1CCC[C@H]1C(=O)N[C@H](C(=O)O)C(C)C [pGlu(Val^13)apelin-13, pGlu (Val^13)apelin-13]
Rank order on basis of anti-hyperglycaemic efficacy ([3]; acute, Table 4): 8
Blood glucose as percent of glucose-alone control (lower = stronger glucose lowering) [3, 8]: 116% (*)
Insulin secretion, where glucose alone = 100% [3, 8]: 75% (**)
